The record followed here is PubChem BioAssay AID330 (DTP/NCI, 2004).

Values joined by “and” are separate entries in the source; they are usually repeats but may differ in a detail not shown here. Identical values can stand only once. Inconclusive results and toxic doses are left out.

This assay deals with P388 leukemia ip, CD2F1 mice, survival T/C. The experiment in a line: NCI In Vivo Anticancer Drug Screen. Data for tumor model P388 Leukemia (intraperitoneal) in CD2F1 (CDF1) mice. The conditions noted are these: endpoint: median survival time, higher = longer survival. Summed up: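 Mice carrying the transplanted tumor received test compound or vehicle. Survival was recorded in each group, and the value is the treated-group measurement divided by that of the vehicle-treated control group.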

The mark [1] stands for this setting: dose: 100.0 mg/kg/injection, schedule: Q01DX005 (ip), vehicle: Klucel (hydroxypropylcellulose) (HPC).
Setting [2] is: dose: 200.0 mg/kg/injection, schedule: Q01DX005 (ip), vehicle: Klucel (hydroxypropylcellulose) (HPC).

Consider `CC(C)CCCCCCCCCCCCC(=O)NCC(=O)NC1C(O)C(O)C(Nc2ncnc3nc[nH]c23)OC1C(O)CO` (stereo not drawn), for which the T/C reads like this: (dose: 0.06 mg/kg/injection, schedule: Q01DX009 (ip), vehicle: Klucel (hydroxypropylcellulose) (HPC)) 100 % of control; (dose: 0.13 mg/kg/injection, schedule: Q01DX009 (ip), vehicle: Klucel (hydroxypropylcellulose) (HPC)) 100 % of control; (dose: 0.25 mg/kg/injection, schedule: Q01DX009 (ip), vehicle: Klucel (hydroxypropylcellulose) (HPC)) 100 % of control; (dose: 0.25 mg/kg/injection, schedule: Q01DX009 (ip), vehicle: distilled water + alcohol) 154 % of control; (dose: 0.25 mg/kg/injection, schedule: Q01DX009 (ip), vehicle: saline with Tween-80) 158 % of control; (dose: 0.25 mg/kg/injection, schedule: Q03HX008 (ip), vehicle: Klucel (hydroxypropylcellulose) (HPC)) 100 % of control. Also, the T/C reads like this: (dose: 0.25 mg/kg/injection, schedule: Q03HX016 (ip), vehicle: Klucel (hydroxypropylcellulose) (HPC)) 100 % of control; (dose: 0.25 mg/kg/injection, schedule: Q03HX024 (ip), vehicle: Klucel (hydroxypropylcellulose) (HPC)) 95 % of control; (dose: 0.5 mg/kg/injection, schedule: Q01DX009 (ip), vehicle: Klucel (hydroxypropylcellulose) (HPC)) 100 % of control; (dose: 0.5 mg/kg/injection, schedule: Q01DX009 (ip), vehicle: distilled water + Tween-80) 154 % of control; (dose: 0.5 mg/kg/injection, schedule: Q01DX009 (ip), vehicle: saline with Tween-80) 151 % of control; (dose: 0.5 mg/kg/injection, schedule: Q01DX009 (oral), vehicle: Klucel (hydroxypropylcellulose) (HPC)) 100 % of control. In addition, the T/C (dose: 0.5 mg/kg/injection, schedule: Q03HX008 (ip), vehicle: Klucel (hydroxypropylcellulose) (HPC)) is 100 % of control; the T/C (dose: 0.5 mg/kg/injection, schedule: Q03HX016 (ip), vehicle: Klucel (hydroxypropylcellulose) (HPC)) is 100 % of control; the T/C (dose: 0.5 mg/kg/injection, schedule: Q03HX024 (ip), vehicle: Klucel (hydroxypropylcellulose) (HPC)) was 90 % of control; the T/C (dose: 1.0 mg/kg/injection, schedule: Q01DX009 (ip), vehicle: Klucel (hydroxypropylcellulose) (HPC)) was 100 % of control; the T/C (dose: 1.0 mg/kg/injection, schedule: Q01DX009 (ip), vehicle: distilled water + alcohol) was 110 % of control; the T/C (dose: 1.0 mg/kg/injection, schedule: Q01DX009 (ip), vehicle: saline with Tween-80) was 101 % of control and 109 % of control. For the same compound, the T/C reads like this: (dose: 1.0 mg/kg/injection, schedule: Q01DX009 (oral), vehicle: Klucel (hydroxypropylcellulose) (HPC)) 100 % of control; (dose: 1.0 mg/kg/injection, schedule: Q03HX008 (ip), vehicle: Klucel (hydroxypropylcellulose) (HPC)) 100 % of control; (dose: 1.0 mg/kg/injection, schedule: Q03HX016 (ip), vehicle: Klucel (hydroxypropylcellulose) (HPC)) 100 % of control; (dose: 1.0 mg/kg/injection, schedule: Q03HX024 (ip), vehicle: Klucel (hydroxypropylcellulose) (HPC)) 95 % of control; (dose: 2.0 mg/kg/injection, schedule: Q01DX001 (ip), vehicle: Klucel (hydroxypropylcellulose) (HPC)) 100 % of control; (dose: 2.0 mg/kg/injection, schedule: Q01DX009 (ip), vehicle: Klucel (hydroxypropylcellulose) (HPC)) 151 % of control. Further, the T/C was 89 % of control (dose: 2.0 mg/kg/injection, schedule: Q01DX009 (ip), vehicle: saline with Tween-80); 100 % of control (dose: 2.0 mg/kg/injection, schedule: Q01DX009 (oral), vehicle: Klucel (hydroxypropylcellulose) (HPC)); 100 % of control (dose: 2.0 mg/kg/injection, schedule: Q03HX008 (ip), vehicle: Klucel (hydroxypropylcellulose) (HPC)); 100 % of control (dose: 2.0 mg/kg/injection, schedule: Q03HX016 (ip), vehicle: Klucel (hydroxypropylcellulose) (HPC)); 95 % of control (dose: 2.0 mg/kg/injection, schedule: Q03HX024 (ip), vehicle: Klucel (hydroxypropylcellulose) (HPC)); 100 % of control (dose: 2.0 mg/kg/injection, schedule: Q04DX003 (ip), vehicle: Klucel (hydroxypropylcellulose) (HPC)). The T/C (dose: 2.0 mg/kg/injection, schedule: Q08DX002 (ip), vehicle: Klucel (hydroxypropylcellulose) (HPC)) is 100 % of control; the T/C (dose: 4.0 mg/kg/injection, schedule: Q01DX001 (ip), vehicle: Klucel (hydroxypropylcellulose) (HPC)) is 100 % of control; the T/C (dose: 4.0 mg/kg/injection, schedule: Q01DX009 (oral), vehicle: Klucel (hydroxypropylcellulose) (HPC)) is 100 % of control; the T/C (dose: 4.0 mg/kg/injection, schedule: Q04DX003 (ip), vehicle: Klucel (hydroxypropylcellulose) (HPC)) is 100 % of control; the T/C (dose: 4.0 mg/kg/injection, schedule: Q08DX002 (ip), vehicle: Klucel (hydroxypropylcellulose) (HPC)) was 100 % of control; the T/C (dose: 8.0 mg/kg/injection, schedule: Q01DX001 (ip), vehicle: Klucel (hydroxypropylcellulose) (HPC)) was 100 % of control. In addition, the T/C is 100 % of control (dose: 8.0 mg/kg/injection, schedule: Q04DX003 (ip), vehicle: Klucel (hydroxypropylcellulose) (HPC)); 100 % of control (dose: 8.0 mg/kg/injection, schedule: Q08DX002 (ip), vehicle: Klucel (hydroxypropylcellulose) (HPC)); 100 % of control (dose: 16.0 mg/kg/injection, schedule: Q01DX001 (ip), vehicle: Klucel (hydroxypropylcellulose) (HPC)); 100 % of control (dose: 16.0 mg/kg/injection, schedule: Q01DX001 (oral), vehicle: Klucel (hydroxypropylcellulose) (HPC)); 100 % of control (dose: 16.0 mg/kg/injection, schedule: Q04DX003 (ip), vehicle: Klucel (hydroxypropylcellulose) (HPC)); 104 % of control (dose: 16.0 mg/kg/injection, schedule: Q08DX002 (ip), vehicle: Klucel (hydroxypropylcellulose) (HPC)). Also, the T/C was 100 % of control (dose: 32.0 mg/kg/injection, schedule: Q01DX001 (oral), vehicle: Klucel (hydroxypropylcellulose) (HPC)); 100 % of control (dose: 64.0 mg/kg/injection, schedule: Q01DX001 (oral), vehicle: Klucel (hydroxypropylcellulose) (HPC)); 100 % of control (dose: 128.0 mg/kg/injection, schedule: Q01DX001 (oral), vehicle: Klucel (hydroxypropylcellulose) (HPC)).

For `CCC1CN2CCc3cc(OC)c(OC)cc3C2CC1=O` (stereo not drawn), the T/C reads like this: (dose: 12.5 mg/kg/injection, schedule: Q01DX009 (ip), vehicle: saline) 104 % of control; (dose: 25.0 mg/kg/injection, schedule: Q01DX009 (ip), vehicle: saline) 99 % of control; (dose: 37.5 mg/kg/injection, schedule: Q04DX003 (ip), vehicle: saline with Tween-80) 101 % of control; (dose: 50.0 mg/kg/injection, schedule: Q01DX009 (ip), vehicle: saline with Tween-80) 107 % of control; (dose: 50.0 mg/kg/injection, schedule: Q01DX009 (ip), vehicle: saline) 99 % of control and 103 % of control; (dose: 75.0 mg/kg/injection, schedule: Q04DX003 (ip), vehicle: saline with Tween-80) 121 % of control. Besides, the T/C is 112 % of control (dose: 100.0 mg/kg/injection, schedule: Q01DX009 (ip), vehicle: saline with Tween-80); 96 % of control and 97 % of control (dose: 100.0 mg/kg/injection, schedule: Q01DX009 (ip), vehicle: saline); 107 % of control (dose: 200.0 mg/kg/injection, schedule: Q01DX009 (ip), vehicle: saline with Tween-80); 106 % of control (dose: 200.0 mg/kg/injection, schedule: Q01DX009 (ip), vehicle: saline).

On to `CCC[As](CCC)SC1CC(OC(=O)c2ccccc2)C(OC(=O)c2ccccc2)C(COC(=O)c2ccccc2)O1` (stereo not drawn), for which the T/C by setting is: (dose: 50.0 mg/kg/injection, schedule: Q01DX009 (ip), vehicle: saline + alcohol) 100 % of control; (dose: 100.0 mg/kg/injection, schedule: Q01DX009 (ip), vehicle: saline + alcohol) 102 % of control; (dose: 200.0 mg/kg/injection, schedule: Q01DX009 (ip), vehicle: saline + alcohol) 102 % of control.

For `Cc1cc(=O)c(C(=O)NC(=O)c2ccccn2)c(C)o1`, the T/C is, setting by setting: (dose: 50.0 mg/kg/injection, schedule: Q01DX005 (ip), vehicle: Klucel (hydroxypropylcellulose) (HPC)) 101 % of control; under setting [1], 101 % of control; under setting [2], 107 % of control.

Take `O=C(/C=C/c1ccccc1)OCC12OC1C(O)C1C=COC(OC3OC(CO)C(O)C(O)C3O)C12` (stereo not drawn): the T/C is 96 % of control (dose: 4.38 mg/kg/injection, schedule: Q01DX005 (ip), vehicle: Klucel (hydroxypropylcellulose) (HPC)); 94 % of control (dose: 8.75 mg/kg/injection, schedule: Q01DX005 (ip), vehicle: Klucel (hydroxypropylcellulose) (HPC)); 97 % of control (dose: 17.5 mg/kg/injection, schedule: Q01DX005 (ip), vehicle: Klucel (hydroxypropylcellulose) (HPC)); 97 % of control (dose: 35.0 mg/kg/injection, schedule: Q01DX005 (ip), vehicle: Klucel (hydroxypropylcellulose) (HPC)); 97 % of control (dose: 70.0 mg/kg/injection, schedule: Q01DX005 (ip), vehicle: Klucel (hydroxypropylcellulose) (HPC)); 95 % of control under setting [1]. In addition, the T/C under setting [2] was 103 % of control.
